One experiment deals with pol-β null cells (88TAg). The experiment can be described thus: Growth inhibition assay (modified MTT, MTS). It is filed as cell-based, mouse. Particulars: MTS viability 48 hr after 1-2 hr exposure. Here is the method: (§1) Culture Conditions and Cell Cytotoxicity Assays. Transformed MEFs were cultured at 37° C. in a humidified incubator with 10% CO2 in DMEM supplemented with 10% fetal bovine serum, penicillin (50 units/ml), streptomycin (50 μg/ml) and Glutamax (4 mM). Human embryonic kidney cells (293T) were cultured similarly in DMEM supplemented with 10% fetal bovine serum, penicillin (50 units/ml), streptomycin (50 μg/ml) and Glutamine (4 mM). TMZ, MMS and MMC induced cytotoxicity was determined by growth inhibition assays. Briefly, cells were seeded in 96-well dishes at 1250 cells/well. After 24 hours, cells (quadruplicate wells) were exposed to serial dilutions of damaging agent in growth media for 1-2 hours (or as indicated in the text) at 37° C. Drug-containing medium was replaced with fresh medium and the plates were incubated at 37° C. for 48 hours at which point the total cell number was determined by a modified MTT assay (MTS; Promega). Metabolically active cells were quantified by the bioreduction of the MTS tetrazolium compound by recording absorbance at 490 nm using a microplate reader. Results were calculated from the average of four separate experiments and are reported as the % of treated cells relative to the cells in control wells (% Control).

The next experiment relates to γ-H2AX. The experiment can be described thus: γ-H2AX immunoblotting. The class given is cell-based, mouse. Conditions: MMS 1 hr or TMZ 2 hr exposure. Here is the method:
For γ-H2AX immunoblotting, protein was prepared as follows: briefly, 6×10^5 cells were seeded into 150 mm dishes and incubated for 24 hours at 10% CO2 at 37° C. Cells were treated with MMS and TMZ for 1 or 2 hr respectively, and whole cells were scraped from the plates in 1×PBS, washed, and immediately placed on dry ice. Thawed pellets were re-suspended in a 1:1 ratio of RIPA buffer and Laemmli buffer. Samples were boiled for 5 minutes and protein from an equal cell number was added to each well. Protein was separated by electrophoresis in a 12% SDS-polyacrylamide gel and electro-transferred to a […] nitrocellulose membrane (Trans-Blot, Bio-Rad). Membranes were blocked for 20 minutes in a 3% dried milk/TBS solution at room temperature and incubated with 0.5-1 μg/ml of anti-phospho-H2AX (Serine 139) (Upstate) prepared in TBS/3% dried milk and 0.1% Tween20 over night at 4° C. Membranes were washed twice with water and incubated with horseradish peroxidase (HRP)-conjugated secondary antibody (goat anti-rabbit HRP; Bio-Rad) at room temperature for 1.5 hour. Following a series of washes with water and TBS, HRP activity was detected using the Super Signal West Femto reagent (Pierce). Each membrane was re-probed with anti-PCNA to correct for differences in protein loading, and densitometry was used to quantitate with Quantity One 1-D analysis software (BioRad).
On the technique in general: A western blot detects proteins with antibodies after separation by electrophoresis.

For a further experiment, the system named is Wt cells (92TAg). The experiment can be described thus: TMZ growth inhibition assay (modified MTT, MTS). It is filed as cell-based. Conditions: Mus musculus, TMZ exposure 48 hr. Here is the method:
as §1

For experiment [1], the system named is Wt pol-β knockdown cells over-expressing hAag (wt hAag.2/polβ-KD.4, wt hAag.3/polβ-KD.4). The experiment can be described thus: TMZ growth inhibition assay (modified MTT, MTS). The class given is cell-based, mouse. Particulars: for IC50: Mus musculus. The text has this:
Cell Lines and Transfection Conditions. Transformed MEF cell lines (92TAg, Wt; 88TAg, pol-β null; 308TAg, Aag null and 283TAg, pol-β null/Aag null) have been described previously and are available from the ATCC. 293T cells were a gift from J. O'Bryan (NIEHS, NIH). Primary cultures of pol-λ, null MEFs were a kind gift from C.A. Reynaud (Faculte de Medecine Necker-Enfants Malades, Paris, France). The pol-ι null MEFs were derived from C129SvJ mice as described previously and identified by PCR to confirm the pol-ι null mutation. These were immortalized by SV40 large T-antigen (370TAg, pol-λ, null; 369TAg, pol-ι null) as described previously. Human Aag over-expressing cell lines were prepared as follows: briefly, 1.5×10^5 cells were seeded into 60 mm dishes and incubated for 24-30 hours at 10% CO2 at 37° C. The Aag expression plasmid (pRS1422) was transfected using FuGene 6 Transfection Reagent (Roche Diagnostic Corp) according to the manufacturer's instructions. Stable cell lines were selected in G418 (600 μg/ml) for 2 weeks, individual clones were amplified and 20 μg of nuclear extract was analyzed by immunoblotting for the expression of human Aag protein and then re-probed for expression of pol-β and PCNA.
Transfection of the pSuper siRNA plasmids was completed as follows: Briefly, 1.5×10^5 cells were seeded into 60 mm dishes and incubated for 24-30 hours at 10% CO2 at 37° C. […] For transient transfections, cells were lysed 24 hours post transfection by boiling in Laemmli buffer and analyzed by immunoblotting for the expression of the V5-pol-β transgene using anti-V5 (Invitrogen). […] Individual clones were amplified and 20 μg of nuclear extract was analyzed by immunoblotting for the expression of endogenous pol-β protein using the Nucbuster nuclear protein extract reagent (Novagen) and then re-probed for expression of PCNA as a loading control.
Culture Conditions and Cell Cytotoxicity Assays. […] TMZ, MMS and MMC induced cytotoxicity was determined by growth inhibition assays. […]

The test system of experiment [2] is MDA-MB-231 cells with Mpg/Aag over-expression combined with pol-β knockdown. The experiment can be described thus: Temozolomide growth inhibition assay (MTS). The class given is cell-based, human. Particulars: TMZ 48 hours; compared to the parental MDA-MB-231 cells. The procedure: Culture Conditions and Cell Cytotoxicity Assays. Human Mpg over-expression, human pol-β knockdown and human pol-β over-expressing MDA-MB-231 breast cancer cell lines were cultured at 37° C. in a humidified incubator with 5% CO2 in RPMI 1640 (Cambrex Biosciences Group, Walkersville, Md.) supplemented with 10% heat inactivated fetal bovine serum and gentamicin (10 μg/ml). Temozolomide induced cytotoxicity was determined by growth inhibition assays. Briefly, cells were seeded in 96-well dishes at 2000 cells/well. After 24 hours, cells (quadruplicate wells) were exposed to serial dilutions of Temozolomide in growth media at 37° C. for 48 hours at which point the total cell number was determined by a modified 3-(4,5-dimethylthiazol-2-yl)-2,5-diphenyltetrazolium bromide (MTT) assay (MTS; Promega Madison, Wis.) (Cory et al., Cancer Communications; 3(7):207-12 (1991)). Metabolically active cells were quantified by the bioreduction of the MTS tetrazolium compound by recording absorbance at 490 nm using a microplate reader. Results were calculated from the average of four separate experiments and are reported as the % of treated cells relative to the cells in control wells (% Control).

Take `CO[C@@]12[C@H](COC(N)=O)C3=C(C(=O)C(C)=C(N)C3=O)N1C[C@@H]1N[C@@H]12` [MMC, Mitomycin C]: the “sensitivity of pol-β null cells relative to Wt and other null cells” value with pol-β null cells (88TAg) was “equally sensitive”.

With `COS(C)(=O)=O` [MMS, Methyl methanesulfonate], the “γ-H2AX expression in pol-β deficient cells as compared to Wt cells” value with γ-H2AX is recorded as “clear increase”.

In general, IC50 refers to the point on the concentration scale where inhibition reaches its midpoint. Low readings indicate inhibition by little substance, high ones a need for much substance. With `Cn1nnc2c(C(N)=O)ncn2c1=O` [TMZ, temozolomide], the IC50 is 2600 µM in the experiment with Wt cells (92TAg); 1250 µM in experiment [1] (TMZ exposure 2 hr, viable cells after 48 hr, wt hAag.2/polβ-KD.4 and wt hAag.3/polβ-KD.4 cells); approximately 700 µM in experiment [1] (TMZ exposure 48 hr, wt hAag.3/Polβ-KD.4 cells). Moreover, in experiment [1] (TMZ exposure 48 hr, hAag over-expression plus pol-β knockdown compared with Wt cells), the TMZ efficacy improved is reported as approximately 4 fold. The “decrease in IC50” value in experiment [2] is on record as approximately 10 fold.

Values taken from patent US20100048682A1, “INHIBITING DNA POLYMERASE BETA TO ENHANCE EFFICACY OF ANTICANCER AGENTS” (UNIVERSITY OF PITTSBURGH - OF THE COMMONWEALTH SYSTEM OF …, priority 2005, published 2010).
